# According to US6979686B1, “Substituted pyrazoles as p38 kinase inhibitors” (Pharmacia Corporation, priority 2001, dated 2005):
# Test system: TNF alpha, BALB/c mice injected with LPS
# Assay: Mouse model of LPS-induced TNF alpha production
# Type: in vivo
# Details: Table 6, mouse LPS, head '8 h'
# Method: Mouse Model of LPS-induced TNF Alpha Production:
# TNF alpha was induced in 10-12 week old BALB/c female mice by tail vein injection with 100 ng lipopolysaccharide (from S. Typhosa) in 0.2 ml saline. One hour later mice were bled from the retroorbital sinus and TNF concentrations in serum from clotted blood were quantified by ELISA.
# Efficacy was determined at each time point as percent inhibition of serum TNF levels relative to LPS injected mice that received vehicle only.
# In vivo assessment of the ability of the compounds to inhibit LPS-stimulated TNP release in the mouse is shown in the column identified as: • “Mouse LPS Model, % TNF inhib @ dose @ predose time” wherein in the dose is milligram per kilogram (mpk) administered by oral gavage and the predose time indicates the number of hours before LPS challenge when the compound is administered.
SMILES,"mLPS 8 h percent inhibition (dose 30, oral gavage)","mLPS 8 h percent inhibition (dose not given, oral gavage)"
"Brc1ccc(-c2n[nH]cc2-c2ccncc2)cc1 [Example A-241, 4-[3-(4-bromophenyl)-1H-pyrazol-4-yl]pyridine]",79%,–
"Cn1cc(-c2ccncc2)c(-c2ccc(F)c(F)c2)n1 [Example A-242, 4-[3-(3,4-difluorophenyl)-1-methyl-1H-pyrazol-4-yl]pyridine]",95%,–
Fc1cc(-c2c[nH]nc2-c2ccc(Cl)cc2)ccn1 [Example A-240],78%,–
"Fc1ccc(-c2n[nH]cc2-c2ccnc(NC3CCNCC3)c2)cc1 [Example A-277, 4-[3-(4-fluorophenyl)-1H-pyrazol-4-yl]-N-4-piperadinyl-2-pyridinamine]",33%,–
"Fc1ccc(-c2nn(CCN3CCOCC3)cc2-c2ccncc2)cc1 [Example A-216, 4-[2-[3-(4-fluorophenyl)-4-(4-pyridinyl)-1H-pyrazol-1-yl]ethyl]morpholine]",27%,–
"N#Cc1cc(-c2c[nH]nc2-c2ccc(F)cc2)ccn1 [Example A-215, 4-[3-(4-fluorophenyl)-1H-pyrazol-4-yl]-2-pyridinecarbonitrile]",38%,–
"Fc1ccc(-c2n[nH]c(NCCN3CCOCC3)c2-c2ccncc2)cc1 [Example A-218, N-[5-(4-fluorophenyl)-4-(4-pyridinyl)-1H-pyrazol-3-yl]-4-morpholineethanamine]",18%,–
"Clc1ccc(-c2n[nH]cc2-c2ccncc2)cc1Cl [Example A-297, 4-[3-(3,4-dichlorophenyl)-1H-pyrazol-4-yl]pyridine]",89%,–
"Fc1ccc(-c2n[nH]cc2-c2ccnc(F)c2)cc1 [Example A-249, 2-fluoro-4-[3-(4-fluorophenyl)-1H-pyrazol-4-yl]pyridine]",73%,–
"CN(C)CCCNc1[nH]nc(-c2ccc(F)cc2)c1-c1ccncc1 [Example A-287, N′-[5-(4-fluorophenyl)-4-(4-pyridinyl)-1H-pyrazol-3-yl]-N,N-dimethyl-1,3-propanediamine]",−24%,–
"C#CCn1cc(-c2ccncc2)c(-c2ccc(F)cc2)n1 [Example A-294, 4-[3-(4-fluorophenyl)-1-(2-propynyl)-1H-pyrazol-4-yl]pyridine]",61%,–
"Cn1cc(-c2ccnc(NCCO)c2)c(-c2ccc(F)cc2)n1 [Example A-281, 2-[[4-[3-(4-fluorophenyl)-1-methyl-1H-pyrazol-4-yl]-2-pyridinyl]amino]ethanol]",22%,–
"Cn1cc(-c2ccncc2)c(-c2cccc(F)c2)n1 [Example A-229, 4-[3-(3-fluorophenyl)-1-methyl-1H-pyrazol-4-yl]pyridine]",–,76%
"Fc1ccc(-c2n[nH]cc2-c2ccncc2)cc1F [Example A-239, 4-[3-(3,4-difluorophenyl)-1H-pyrazol-4-yl]pyridine]",51%,–
"CCN(CC)CCn1cc(-c2ccncc2)c(-c2ccc(F)cc2)n1 [Example A-284, N,N-diethyl-3-(4-fluorophenyl)-4-(4-pyridinyl)-1H-pyrazole-1-ethanamine]",–,−1%
"C#CCn1ncc(-c2ccncc2)c1-c1ccc(F)cc1 [Example A-295, 4-[5-(4-fluorophenyl)-1-(2-propynyl)-1H-pyrazol-4-yl]pyridine]",94%,–
"CCN(CC)CCn1cc(-c2ccnc(NCc3ccc(F)cc3)c2)c(-c2ccc(F)cc2)n1 [Example A-279, 4-[1-[2-(diethylamino)ethyl]-3-(4-fluorophenyl)-1H-pyrazol-4-yl]-N-[(4-fluorophenyl)methyl]-2-pyridinamine]",64%,–
"CN(C)CCn1cc(-c2ccnc(NCc3ccc(F)cc3)c2)c(-c2ccc(F)cc2)n1 [Example A-274, 4-[1-[2-(dimethylamino)ethyl]-3-(4-fluorophenyl)-1H-pyrazol-4-yl]-N-[[4-fluorophenyl)methyl]-2-pyridinamine]",21%,–
"Fc1ccc(-c2n[nH]c(NCCCN3CCOCC3)c2-c2ccncc2)cc1 [Example A-286, N-[5-(4-fluorophenyl)-4-(4-pyridinyl)-1H-pyrazol-3-yl]-4-morpholinepropanamine]",29%,–
"Cn1cc(-c2ccncc2)c(-c2ccc(C(F)(F)F)cc2)n1 [Example A-252, 4-[1-methyl-3-[4-(trifluoromethyl)phenyl]-1H-pyrazol-4-yl]pyridine]",48%,–
"CN(C)CCn1cc(-c2ccncc2)c(-c2ccc(F)cc2)n1 [Example A-261, 3-(4-fluorophenyl)-N,N-dimethyl-4-(4-pyridinyl)-1H-pyrazole-1-ethanamine]",48%,–
